Laboratory results published in patent US9399626B2, “2-thiopyrimidinones” (Pfizer Inc., priority 2011, dated 2016).
Where a name gives a salt, the structure may show the parent alone.

target: T1, MPO (purified from human polynuclear leukocytes) (Homo sapiens, UniProt P05164); test: MPO Amplex Red Activity Assay; assay type: biochemical; settings: Table 1, 2 μM H2O2, pH 7.4
T1 construct: purified from human polynuclear leukocytes; purchased Calbiochem/EMD Biosciences; host or cells: human polynuclear leukocytes (natural source)
T1 sequence (P05164 279-745 limits assumed): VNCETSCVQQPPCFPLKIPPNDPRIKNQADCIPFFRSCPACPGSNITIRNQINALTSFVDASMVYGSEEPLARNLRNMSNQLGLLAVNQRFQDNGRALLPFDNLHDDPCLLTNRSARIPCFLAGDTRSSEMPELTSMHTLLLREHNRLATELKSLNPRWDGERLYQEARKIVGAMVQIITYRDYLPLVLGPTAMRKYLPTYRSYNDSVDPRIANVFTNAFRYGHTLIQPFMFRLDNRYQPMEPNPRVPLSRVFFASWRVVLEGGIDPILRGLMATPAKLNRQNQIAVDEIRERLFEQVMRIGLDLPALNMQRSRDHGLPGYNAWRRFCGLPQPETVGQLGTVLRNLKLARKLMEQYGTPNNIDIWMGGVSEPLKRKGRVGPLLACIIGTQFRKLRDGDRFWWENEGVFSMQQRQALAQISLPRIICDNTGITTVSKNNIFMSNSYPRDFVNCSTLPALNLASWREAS
T1 sequence (P05164 165-273 limits assumed): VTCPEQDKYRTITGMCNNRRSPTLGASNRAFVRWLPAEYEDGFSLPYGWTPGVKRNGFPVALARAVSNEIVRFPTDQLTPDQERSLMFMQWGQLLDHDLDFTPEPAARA
Outline: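 Human leukocyte MPO […] oxidises 30 μM Amplex Red with 2 μM H2O2 in 50 mM NaPi pH 7.4, 150 mM NaCl, 1 mM DTPA, 2% DMSO. Resorufin fluorescence (ex 530/em 580 nm) read every 20 s, minus catalase background. kobs from the first 600 s, corrected for auto-inactivation, fit versus [I] for kinact/KI.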

| MPO kinact/Ki | Compound |
| --- | --- |
| 8090 1/s per M | COc1ccc(C#N)cc1-c1cc(=O)[nH]c(=S)n1CCO [Example 163, 3-[3-(2-hydroxyethyl)-6-oxo-2-thioxo-1,2,3,6-tetrahydropyrimidin-4-yl]-4-methoxybenzonitrile] |
| 4340 1/s per M | COc1ccc(-c2cc(=O)[nH]c(=S)n2CCNC(=O)[C@@H](N)C(C)C)c(OC)c1 [Example 263, N-{2-[6-(2,4-dimethoxyphenyl)-4-oxo-2-thioxo-3,4-dihydropyrimidin-1(2H)-yl]ethyl}-L-valinamide trifluoroacetate] |
| 1850 1/s per M | CCOC(=O)C(C)n1c(-c2ccc(OC)cc2OC)cc(=O)[nH]c1=S (stereo not drawn) [Example 239, ethyl 2-[6-(2,4-dimethoxyphenyl)-4-oxo-2-thioxo-3,4-dihydropyrimidin-1(2H)-yl]propanoate] |
| 6230 1/s per M | CCOC(=O)Cn1c(-c2ccc(OC)cc2OC)cc(=O)[nH]c1=S [Example 221, ethyl [6-(2,4-dimethoxyphenyl)-4-oxo-2-thioxo-3,4-dihydropyrimidin-1(2H)-yl]acetate] |
| 4520 1/s per M | COCCn1c(-c2c[nH]c3ccccc23)cc(=O)[nH]c1=S [Example 33, 6-(1H-indol-3-yl)-1-(2-methoxyethyl)-2-thioxo-2,3-dihydropyrimidin-4(1H)-one] |
| 3730 1/s per M | COc1cccc(-c2cc(=O)[nH]c(=S)n2CCCN)c1 [Example 265, 1-(3-aminopropyl)-6-(3-methoxyphenyl)-2-thioxo-2,3-dihydropyrimidin-4(1H)-one hydrochloride] |
| 5980 1/s per M | NCCn1c(-c2csc3ccccc23)cc(=O)[nH]c1=S [Example 36, 1-(2-aminoethyl)-6-(1-benzothien-3-yl)-2-thioxo-2,3-dihydropyrimidin-4(1H)-one hydrochloride] |
| 3280 1/s per M | COc1ccc(-c2cc(=O)[nH]c(=S)n2CC(C)(C)CO)c(OC)c1 [Example 224, 6-(2,4-dimethoxyphenyl)-1-(3-hydroxy-2,2-dimethylpropyl)-2-thioxo-2,3-dihydropyrimidin-4(1H)-one] |
| 2400 1/s per M | COc1ccc(-c2cc(=O)[nH]c(=S)n2Cc2ccn[nH]2)c(OC)c1 [Example 207, 6-(2,4-dimethoxyphenyl)-1-(1H-pyrazol-5-ylmethyl)-2-thioxo-2,3-dihydropyrimidin-4(1H)-one] |
| 2920 1/s per M | NC(=O)Cn1c(-c2ccccc2-n2nccn2)cc(=O)[nH]c1=S [Example 99, 2-{4-oxo-2-thioxo-6-[2-(2H-1,2,3-triazol-2-yl)phenyl]-3,4-dihydropyrimidin-1(2H)-yl}acetamide] |
| 1890 1/s per M | COCCn1c(-c2ccc(F)cc2)cc(=O)[nH]c1=S [Example 290, 6-(4-fluorophenyl)-1-(2-methoxyethyl)-2-thioxo-2,3-dihydropyrimidin-4(1H)-one] |

same assay, conditions: Table 1A, 2 μM H2O2, pH 7.4

| MPO kinact/Ki | Compound |
| --- | --- |
| 3910 1/s per M | NCCNC(=O)Cn1c(-c2ccc(F)cc2OCCO)cc(=O)[nH]c1=S [Example 415, N-(2-aminoethyl)-2-{6-[4-fluoro-2-(2-hydroxyethoxy)phenyl]-4-oxo-2-thioxo-3,4-dihydropyrimidin-1(2H)-yl}acetamide] |
| 5040 1/s per M | COc1ccc(OCCO)c(-c2cc(=O)[nH]c(=S)n2CC(=O)NCCN)c1 [Example 378, N-(2-aminoethyl)-2-{6-[2-(2-hydroxyethoxy)-5-methoxyphenyl]-4-oxo-2-thioxo-3,4-dihydropyrimidin-1(2H)-yl}acetamide] |
| 6560 1/s per M | O=c1cc(-c2ccc(F)cc2OCCO)n(CCO)c(=S)[nH]1 [Example 413, 6-[4-fluoro-2-(2-hydroxyethoxy)phenyl]-1-(2-hydroxyethyl)-2-thioxo-2,3-dihydropyrimidin-4(1H)-one] |
| 4570 1/s per M | COc1ccc(F)cc1-c1cc(=O)[nH]c(=S)n1CC(=O)NCCN [Example 371, N-(2-aminoethyl)-2-[6-(5-fluoro-2-methoxyphenyl)-4-oxo-2-thioxo-3,4-dihydropyrimidin-1(2H)-yl]acetamide] |
